According to US7498406B2, “Substantially cell membrane impermeable compound and use thereof” (priority 1999, dated 2009):
Entries after “also recorded” stand apart in the source; their conditions may differ.

Key:
Lewis lung tumours = assay: Tumour growth, oral administration in water; type: in vivo, C57Bl6/J mice; details: ~10 mg per kg per day in water
Experimental: (§1) FIG. 28. Inhibition of human pancreatic carcinoma and murine Lewis lung tumour growth by oral administration of GSAO. BxPC-3 or Lewis lung tumours were established in the proximal midline of female 7 to 9 week old SCID or C57Bl6/J mice, respectively, SCID mice bearing ˜0.5 g BxPC-3 tumours or C57Bl6/J mice bearing 0.1 g Lewis lung tumours were randomised into two groups (n=2 for BxPC-3 and n=3 for Lewis lung) and treated with either GSAA or GSAO (0.05 mg per mL) in their water. Mice drink ˜5 mL of water per day and therefore consumed ˜10 mg GSAO or GSM per kg per day. The water contained 100 mM glycine to minimise oxidation of GSAO. Tumour volume and animal weight was measured every 3 days. The data points and errors represent the mean and SE of the tumour volumes.
(§2) SCID mice bearing subcutaneous human pancreatic carcinoma tumours or C57Bl6/J mice bearing subcutaneous murine Lewis lung tumours were fed either ˜10 mg per kg per day GSAO or GSAA in their water.

BAE = assay: Proliferation of cultured cells, 72 hr; type: cell-based, bovine; details: for IC50: 72 hr
Experimental: BCE (Folkman et al. 1979), BAE, BxPC-3 (ATCC, Bethesda, Md.), HT1080 (Jiang et al., 1999), 3T3 (ATCC, Bethesda, Md.) and BVSM (Hogg et al., 1997) cells were harvested and cultured as indicated. Cells (0.5 mL of 30,000 or 100,000 cells per mL) were seeded into gelatinized 24-well culture plates (Corning Costar, Corning, N.Y.) in Dulbecco's Modified Eagle's Medium (DMEM, JHR Bioscience, Lenexa, Kans.) containing 10% fetal calf serum (FCS, Intergen Comp., Purchase, N.Y.) and 1% Glutamine Pen-Strep (GPS, Irvine Scientific, Santa Ana, Va.) and allowed to attach for 24 hr in 10% CO2 at 37° C. The media was then replaced with DMEM and 1% GPS containing 0 to 1 mM GSAO or GSAA and either 5% bovine calf serum (BCS, HyClone, Logan, Utah) and 1 ng per mL FGF-2 (Genzyme, Cambridge, Mass.) or 5% BCS and 10 ng per mL VEGF (Genzyme, Cambridge, Mass.) for BCE cells, 5% or 10% BCS for BAE cells, 5% BCS for BVSM cells, and 5% FCS for BxPC-3, HT1080 and 3T3 cells. Cells were cultured for 0 to 72 hr in 10% CO2 at 37° C. then dispersed in trypsin/EDTA (GibcoBRL, Granc Island, N.Y.), resuspended in Coulter balanced electrolyte solution and counted with a Z1 Coulter counter (Coulter Corp., Miami, Fla.) in all experiments there were two control wells containing DMEM with 1% GPS and either 5% BCS for BCE cells, 2% BCS for BAE and BVSM cells, or 2% FCS for BxPC-3, HT1080 and 3T3 cells. These wells represented no to limited proliferation.

3T3 = assay: Proliferation of cultured cells, 72 hr; type: cell-based, murine; details: 5% FCS, 0 to 1 mM
Experimental: FIG. 19. Effect of GSAO on proliferation of non-endothelial cells. 15,000 BxPC-3 (part A), HT1080 (part B), 3T3 (part C) or BVSM (part D) cells per well were seeded into gelatinised 24-well culture plates and allowed to attach for 24 hr. The media was then replaced with DMEM containing 0 to 1 mM GSAO or GSAA and either 5% BCS (part D) or 5% FCS (parts A, B and C). Cells were cultured for 72 hr and then dispersed and counted. The dotted lines indicate the cell number in control wells containing DMEM and 2% BCS (part D) or 2% FCS (parts A, B and C) which represented no to limited proliferation. The data points and errors represent the mean and range of duplicate wells.
BCE (Folkman et al. 1979), BAE, BxPC-3 (ATCC, Bethesda, Md.), HT1080 (Jiang et al., 1999), 3T3 (ATCC, Bethesda, Md.) and BVSM (Hogg et al., 1997) cells were harvested and cultured as indicated. […] Cells were cultured for 0 to 72 hr in 10% CO2 at 37° C. then dispersed in trypsin/EDTA (GibcoBRL, Granc Island, N.Y.), resuspended in Coulter balanced electrolyte solution and counted with a Z1 Coulter counter (Coulter Corp., Miami, Fla.) in all experiments there were two control wells containing DMEM with 1% GPS and either 5% BCS for BCE cells, 2% BCS for BAE and BVSM cells, or 2% FCS for BxPC-3, HT1080 and 3T3 cells. […]

BxPC-3 tumours [1] = assay: Histological analysis of BxPC-3 tumours (CD-31, PCNA, TUNEL); type: in vivo, SCID mice; details: for necrosis of treated tumours: not shown
Experimental: FIG. 26. Inhibition of angiogenesis in human pancreatic tumours by GSAO. Histological sections of the BxPC-3 tumours shown in part C of FIG. 23 from GSAA and GSAO-treated mice were analysed for angiogenesis (CD-31), proliferation (PCNA) and apoptosis (TUNEL).
The tumours shown in FIG. 23C were fixed in Buffered Formalde-Fresh (Fisher Scientific, Fair Lawn, N.J.), embedded in paraffin and […] sections were cut and placed on glass slides. Sections were stained with haematoxylin and eosin or for CD31, PCNA or fragmented DNA (TUNEL). Sections were incubated overnight at 4° C. with a […] of anti-mouse CD-31 antibody (PharMingen, San Diego, Calif.) followed by a 1:200 dilution of biotinylated anti-rat secondary antibody (Vestor, Burlingame, Calif.). The staining was enhanced by tyramide amplification (New England Nuclear, Boston, Mass.). Staining for PCNA was performed as described by Holmgren et al. (1995) while TUNEL labeling of fragmented DNA was performed according to Gavrielli et al. (1992).
Vascular density was determined by selecting 3 tumours, including the smallest and largest, from the control and treatment groups. […] The highest of the three counts was the value taken and two sections from each tumour was examined. The proliferative index was estimated by the percentage of cells scored under 400× magnification (Holmgren et al., 1995). A minimum of 1000 cells was counted in two separate sections. The apoptotic index was estimated by the percentage of cells scored under 400× magnification. A minimum of 1500 cells was counted in two separate sections (Holmgren et al., 1995).

BxPC-3 tumours [2] = assay: Tumour growth, oral administration in water; type: in vivo, SCID mice; details: ~10 mg per kg per day in water
Experimental: as §1, §2

SMILES	reduction of the rate of Lewis lung tumour growth (Lewis lung tumours)	effect on proliferation of BAE cells (BAE; not shown)	Proliferation IC50 (3T3)	necrosis of treated tumours (BxPC-3 tumours [1])	growth of pancreatic tumours (BxPC-3 tumours [2])	IC50 (BAE; 5% BCS) [nM]	IC50 (BAE; 10% BCS) [nM]	proliferative index of tumour cells (PCNA) (BxPC-3 tumours [1]; GSAO- vs GSAA-treated)	tumour angiogenesis (CD-31) (BxPC-3 tumours [1]; GSAO- vs GSAA-treated, 10 mg per kg per day, day 31, p<0.001)	apoptotic index of tumour cells (TUNEL) (BxPC-3 tumours [1]; GSAO- vs GSAA-treated, p=0.05)
N[C@@H](CCC(=O)N[C@@H](CSCC(=O)Nc1ccc([As](=O)(O)O)cc1)C(=O)NCC(=O)O)C(=O)O [GSAA, 4-(N-(S-glutathionylacetyl)amino)phenylarsonic acid, reference compound]	no significant effect	did not effect either proliferation or viability	no significant effect	no macroscopic or microscopic signs of necrosis	no significant effect	–	–	–	–	–
NC(CCC(=O)NC(CSCC(=O)Nc1ccc([As]=O)cc1)C(=O)NCC(=O)O)C(=O)O (centres unmarked) [GSAO, 4-(N-(S-glutathionylacetyl)amino)-phenylarsenoxide]	~50%	–	did not affect the proliferation; also recorded: No effect	no macroscopic or microscopic signs of necrosis	stopped growing	~20	~200	no significant difference	marked suppression of angiogenesis; also recorded: marked reduction in angiogenesis	increase in the apoptotic index
